{
  "source": "patent US20130216590A1",
  "about": "“TOPICAL ANTIVIRAL FORMULATIONS FOR PREVENTION OF TRANSMISSION OF HSV-2” (priority 2010, published 2013)",
  "key": {"HIV-1 RT": {"target": "T1, HIV-1 RT (Human immunodeficiency virus type 1 group M subtype B, UniProt P04585)", "T1 construct": "HSV-1 DNA Polymerase and HIV-1 Reverse Transcriptase Assay", "assay": "HIV-1 reverse transcriptase assay", "assay_type": "biochemical", "method": "(§1) The reaction mixture (40 μl) for the HSV-1 DNA polymerase and HIV-1 RT assays contained 4 μl Premix (200 mM Tris.HCl, pH 7.5; 2 mM DTT; 30 mM MgCl2), 4 μl BSA (5 mg/ml), 1.6 μl activated calf thymus DNA (1.25 mg/ml), 0.8 μl dCTP (5 mM), 0.8 μl dTTP (5 mM), 0.8 μl dGTP (5 mM), 2 μl radiolabeled [^3H]dATP (1 mCi/ml) (3.3 μM), 18 μl H2O and 4 μl tenofovir-DP at different concentrations (i.e. 200, 20, 2, 0.2 μM). The reaction was started by the addition of 4 μl recombinant HSV-1 DNA polymerase (kindly provided by M. W. Wathen (Pfizer, Kalamazoo, Mich.)) or recombinant HIV-1 RT (in 20 mM Tris.HCl, pH 8.0; 1 mM DTT; 0.1 mM EDTA; 0.2 M NaCl; 40% glycerol), and the reaction mixture was incubated for 60 min (HSV-1 DNA polymerase) or 30 min (HIV-1 RT) at 37° C. Then, 1 ml ice-cold 5% TCA in 0.02 M Na4P2O7.10H2O was added to terminate the polymerisation reaction, after which the acid-insoluble precipitate (radiolabeled DNA) was captured onto Whatman glass fiber filters type GF/C (GE Healthcare UK Limited, Buckinghamshire, UK) and further washed with 5% TCA and ethanol to remove free radiolabeled dATP. Radioactivity was determined in a Perkin Elmer Tri-Carb 2810 TR liquid scintillation counter."}, "HSV-1 DNA polymerase": {"target": "T2, HSV-1 DNA polymerase (Human herpesvirus 1, UniProt P04293)", "T2 construct": "gift of M. W. Wathen (Pfizer, Kalamazoo, Mich.)", "T2 sequence (P04293 whole entry)": "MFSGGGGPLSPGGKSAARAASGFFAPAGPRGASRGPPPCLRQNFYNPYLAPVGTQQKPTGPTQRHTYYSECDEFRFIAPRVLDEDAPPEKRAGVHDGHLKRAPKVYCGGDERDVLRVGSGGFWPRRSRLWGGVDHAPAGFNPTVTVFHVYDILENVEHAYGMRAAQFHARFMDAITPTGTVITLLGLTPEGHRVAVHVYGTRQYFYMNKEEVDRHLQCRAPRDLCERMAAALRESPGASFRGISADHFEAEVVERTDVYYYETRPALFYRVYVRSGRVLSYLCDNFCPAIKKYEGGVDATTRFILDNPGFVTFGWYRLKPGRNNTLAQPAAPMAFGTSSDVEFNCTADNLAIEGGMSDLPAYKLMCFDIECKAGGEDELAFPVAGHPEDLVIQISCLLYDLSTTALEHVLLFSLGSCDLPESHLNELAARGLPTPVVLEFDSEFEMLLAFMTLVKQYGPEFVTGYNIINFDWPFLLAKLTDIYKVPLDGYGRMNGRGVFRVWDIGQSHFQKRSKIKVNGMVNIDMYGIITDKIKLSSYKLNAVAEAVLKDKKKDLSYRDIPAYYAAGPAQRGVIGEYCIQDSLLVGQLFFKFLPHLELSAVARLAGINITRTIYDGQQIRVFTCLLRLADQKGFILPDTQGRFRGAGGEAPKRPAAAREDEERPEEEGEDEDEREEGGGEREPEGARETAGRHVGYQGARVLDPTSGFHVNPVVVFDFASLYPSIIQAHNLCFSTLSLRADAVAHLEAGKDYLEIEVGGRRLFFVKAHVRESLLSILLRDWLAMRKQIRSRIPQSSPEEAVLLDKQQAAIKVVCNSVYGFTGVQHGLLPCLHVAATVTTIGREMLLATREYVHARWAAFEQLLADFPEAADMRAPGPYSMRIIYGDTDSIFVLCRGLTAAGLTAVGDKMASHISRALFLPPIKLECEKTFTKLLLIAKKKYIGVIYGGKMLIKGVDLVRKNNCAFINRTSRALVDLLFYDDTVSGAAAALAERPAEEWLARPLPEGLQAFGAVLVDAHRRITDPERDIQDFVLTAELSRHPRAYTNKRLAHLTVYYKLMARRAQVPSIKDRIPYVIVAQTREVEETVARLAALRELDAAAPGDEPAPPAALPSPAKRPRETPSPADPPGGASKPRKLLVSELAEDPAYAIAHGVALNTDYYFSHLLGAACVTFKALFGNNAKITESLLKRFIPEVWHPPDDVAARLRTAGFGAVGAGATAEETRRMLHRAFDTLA", "assay": "HSV-1 DNA polymerase assay", "assay_type": "biochemical", "conditions": "activated calf thymus DNA primer/template; [2,8-3H]dATP competing substrate", "method": "as §1"}, "HSV-2": {"system": "HSV-2", "assay": "Herpes virus infection of primary monocyte/macrophage (M/M) cell cultures", "assay_type": "cell-based", "method": "Human peripheral blood mononuclear cells (PBMCs) were obtained from the blood of healthy seronegative donors by Ficoll-Hypaque density gradient centrifugation. […] Monocyte/macrophage (M/M) cells were separated by adherence onto plastic. […] African green monkey fibroblastoid kidney (Vero) cells highly sensitive to the cytopathic effect of HSV-2 were grown in RPMI medium supplemented with 10% heat inactivated FCS and were used in infectious virus titration assays.\nMacrophage cultures were then infected with HSV-2 (100 CCID50) in the presence of the test compounds. After 2 hrs virus adsorption, the cultures were extensively washed to remove any residual virus particles. Fresh culture medium and compounds, at the indicated concentrations, were then added to the cultures. […] Appropriate positive (infected but not treated M/M) and mock-infected negative (uninfected and untreated M/M) controls were run for each experiment as well. All assays were performed in triplicate. […] Therefore, the potential inhibitory effect of the compounds on the replication of HSV-2 was evaluated 6 days after infection. The amount of infectious virus in the supernatants was determined by a classical limited dilution assay on Vero cell cultures. The titers of produced virus were calculated according to the Reed and Muench method and expressed as 50% tissue culture infective dose per ml (TCID50/ml).\nThe inhibition capacity was expressed in % and calculated considering as value 100 being the virus production in virus-infected untreated cultures."}, "HSV-1 (Kos strain)": {"system": "HSV-1 (Kos strain)", "assay": "In vivo antiviral activity in HSV-1-infected NMRI athymic nude mice", "method": "(§2) Adult NMRI athymic nude mice (weighing ˜20 g) were scarified on the lumbosacral area over a surface of about 1 cm^2. Mice were inoculated with 5×10^3 PFU of HSV-1 (Kos strain) or 5×10^2 of HSV-2 (G strain) in 50 μL per mouse. […] In each experiment, a group of animals treated with a placebo formulation that was the same as the test formulation without drug was included as a negative control. […] The day of virus inoculation was always considered as day 0. All animal procedures were approved by the K.U. Leuven Animal Care Committee. Development of lesions and mortality were recorded over a one month period. Animals were euthanized when more than 30% loss in body weight or development of paralysis occurred. Survival rates were estimated according to the Kaplan-Meir method and were compared using the log-rank test (Mantel-Cox) test (GraphPad Prism)."}, "[1]": {"system": "organotypic raft cultures of keratinocytes", "assay": "Toxic effects in organotypic epithelial raft cultures", "assay_type": "cell-based", "conditions": "highest concentration, 50 μg/ml", "method": "(§3) For the preparation of epidermal equivalents, a collagen matrix solution was made with collagen mixed on ice with 10-fold concentrated HAM's F12 media, 10-fold reconstitution buffer and Swiss 3T3 J2 fibroblasts. One milliliter of the collagen matrix solution was poured into the wells of 24-well microtiter plates. After gel equilibration with 1 ml of growth medium overnight at 37° C., 2.5×10^5 PHK cells were seeded on the top of the gels and maintained submerged for 24-48 hours. The collagen rafts were raised and placed onto stainless-steel grids at the interface between air and liquid culture medium. The growth medium was a mixture of ⅓ HAM F12 and ⅔ Dulbecco's modified Eagle's medium, with the same supplements as used for the Keratinocyte-SFM. Epithelial cells were allowed to stratify, the medium being replaced every 2-3 days. For the evaluation of the antiviral effects of the compounds in the raft system, two series of rafts were run in parallel, one for histological examination and the other one for quantification of viral production by a plaque reduction assay. Rafts were infected with 5,000 PFU of HSV-1 (KOS) or […] strains after 10 days post-lifting and then the medium was replaced by medium containing different dilutions of the compounds. The growth medium containing the different concentrations of the compounds was changed two days later and 3 days later (after 15 days of differentiation), one series of rafts was fixed in 10% buffered formalin, embedded in paraffin and stained with hematoxylin and eosin for histological evaluation. Another series of rafts was used to quantify virus production. For that purpose, each raft was frozen in 3 ml phosphate buffer saline (PBS) and thawed to release the virus from the infected epithelium. Supernatants were clarified by centrifugation at 1,800 rpm and titrated by a plaque assay in HEL cell cultures. Virus production in each raft was then calculated. Two rafts were used for each drug concentration to determine the effects of the compounds on virus yield."}, "HSV-1 and HSV-2": {"system": "HSV-1 and HSV-2", "assay": "HSV cytopathic effect (CPE) reduction assay, laboratory strains, HEL cell monolayers and PHKs", "assay_type": "cell-based, herpes simplex virus", "conditions": "laboratory HSV strains; HEL cell monolayers and PHKs; read-out: EC50, inhibition of virus-induced cytopathicity"}, "HSV-1 (KOS)": {"system": "HSV-1 (KOS)", "assay": "Organotypic epithelial raft cultures infected with HSV-1", "assay_type": "cell-based", "conditions": "reference HSV-1 laboratory strain", "method": "as §3"}, "HSV-2 (G)": {"system": "HSV-2 (G)", "assay": "Organotypic epithelial raft cultures infected with HSV-2", "assay_type": "cell-based", "conditions": "for activity against HSV replication in rafts compared with tenofovir: HSV-1 and HSV-2, FIGS. 3A and 3B; for concentration resulting in complete protection of the epithelial tissue: HSV-2, data not shown", "method": "as §3"}, "HSV-2 (G strain)": {"system": "HSV-2 (G strain)", "assay": "In vivo antiviral activity in HSV-2-infected NMRI athymic nude mice", "conditions": "for protection against viral-induced morbidity and mortality: 1% in DMSO (FIG. 5B)", "method": "as §2"}, "[2]": {"system": "HSV-1 and HSV-2 clinical isolates", "assay": "organism not typed", "assay_type": "cell-based, herpes simplex virus", "conditions": "for antiherpetic activity against thymidine kinase-deficient strains compared with wild-type: clinical isolates, HEL"}, "HSV-2 strain G (HSV-2G)": {"system": "HSV-2 strain G (HSV-2G)", "assay": "Human ex vivo tonsillar tissue, HSV DNA release by real-time PCR", "assay_type": "cell-based", "conditions": "33 μg/ml; tissues from two donors; data not shown", "method": "For each experimental condition 16 tissue blocks were immersed in 500 μl of a HSV-2 (strain G) suspension for 2 hours at 37° C., washed three times with PBS and then placed on the gelfoam rafts. Tenofovir was added during the infection and replenished at each culture medium change. Herpes simplex viral replication was evaluated by the release of viral DNA into the culture medium as measured by quantitative real-time PCR (17). HIV-1 replication was evaluated by the release of p24 capsid antigen using a bead-based assay (18)."}},
  "data": [
    {"smiles": "C[C@H](Cn1cnc2c(N)ncnc21)OCP(=O)(O)OP(=O)(O)OP(=O)(O)O", "note": "[Tenofovir-DP, (R)-(1-(6-amino-9H-purin-9-yl)propan-2-yloxy)methylphosphonic diphosphoric anhydride]", "values": [
      {"measurement": "IC50", "setting": "HIV-1 RT", "value": 4300, "unit": "nM"},
      {"measurement": "IC50", "setting": "HSV-1 DNA polymerase", "value": 1300, "unit": "nM"}
    ]},
    {"smiles": "Nc1nc2c(ncn2COCCO)c(=O)[nH]1", "note": "[acyclovir, 9-(2-hydroxyethoxymethyl)guanine]", "values": [
      {"measurement": "virus released in the supernatants and visible cytopathicity", "setting": "HSV-2; concentrations equal to, or higher than 0.008 μg/ml", "value": "full suppression of virus released in the supernatants and no visible cytopathicity"}
    ]},
    {"smiles": "Nc1ncnc2c1ncn2CCOCP(=O)(O)O", "note": "[adefovir, 9-[2-(phosphonylmethoxyethyl)adenine]]", "values": [
      {"measurement": "survival", "setting": "HSV-1 (Kos strain); 1% in DMSO", "value": 80, "unit": "%"},
      {"measurement": "skin lesions in mice that died", "setting": "HSV-1 (Kos strain); 1% in DMSO formulation", "value": "died without developing skin lesions"},
      {"measurement": "survival", "setting": "HSV-1 (Kos strain); 1% in gel, data not shown", "value": 100, "unit": "%"},
      {"measurement": "toxic effects (increase in number of dead cells or alteration of differentiation)", "setting": "[1]", "value": "No toxic effects"},
      {"measurement": "EC50", "setting": "HSV-1 and HSV-2", "value": "3.6 to 13", "unit": "µg/mL"},
      {"measurement": "concentration giving complete protection from virus-induced cytopathic effect", "setting": "HSV-1 (KOS)", "value": 2, "unit": "µg/mL"},
      {"measurement": "activity against HSV replication in rafts compared with tenofovir", "setting": "HSV-2 (G)", "value": "more active against HSV replication than tenofovir"},
      {"measurement": "concentration resulting in complete protection of the epithelial tissue", "setting": "HSV-2 (G)", "value": "≥ 2", "unit": "µg/mL"},
      {"measurement": "HSV titer in supernatants", "setting": "HSV-2; 0.4 μg/ml", "value": "5.4×10^3 TCID50/ml"},
      {"measurement": "visible CPE", "setting": "HSV-2; 0.4 μg/ml", "value": 45, "unit": "%"},
      {"measurement": "HSV titer in supernatants", "setting": "HSV-2; 1 μg/ml", "value": "8.5×10^2 TCID50/ml"},
      {"measurement": "visible CPE", "setting": "HSV-2; 1 μg/ml", "value": 5, "unit": "%"},
      {"measurement": "viral particles in the supernatants and visible CPE", "setting": "HSV-2; drug concentrations between 500 and 5 μg/ml", "value": "neither viral particles in the supernatants nor visible CPE were found"},
      {"measurement": "protection against viral-induced morbidity and mortality", "setting": "HSV-2 (G strain)", "value": 80, "unit": "%"},
      {"measurement": "appearance of lesions and subsequent death", "setting": "HSV-2 (G strain); formulated in the gel at 1%", "value": "significant delay in the appearance of lesions and subsequent death"}
    ]},
    {"smiles": "O=c1[nH]c(=O)n([C@H]2C[C@H](O)[C@@H](CO)O2)cc1/C=C/Br", "note": "[brivudin, RE)-5-(2-bromovinyl)-1(-D-2′-deoxyribofuranos-1-yl-uracil]", "values": [
      {"measurement": "antiherpetic activity against thymidine kinase-deficient strains compared with wild-type", "setting": "[2]", "value": "lost their antiherpetic activity"}
    ]},
    {"smiles": "Nc1ccn(C[C@@H](CO)OCP(=O)(O)O)c(=O)n1", "note": "[cidofovir, (S)-1-(3-hydroxy-2-phosphonylmethoxypropyl)cytosine]", "values": [
      {"measurement": "protection against virus-induced morbidity and mortality", "setting": "HSV-1 (Kos strain); either the DMSO or the gel formulation", "value": "completely protected"},
      {"measurement": "toxic effects (increase in number of dead cells or alteration of differentiation)", "setting": "[1]", "value": "No toxic effects"},
      {"measurement": "EC50", "setting": "HSV-1 and HSV-2", "value": "0.63 to 4.4", "unit": "µg/mL"},
      {"measurement": "concentration giving complete protection from virus-induced cytopathic effect", "setting": "HSV-1 (KOS)", "value": "≥ 0.5", "unit": "µg/mL"},
      {"measurement": "activity against HSV replication in rafts compared with tenofovir", "setting": "HSV-2 (G)", "value": "more active against HSV replication than tenofovir"},
      {"measurement": "concentration resulting in complete protection of the epithelial tissue", "setting": "HSV-2 (G)", "value": 0.2, "unit": "µg/mL"},
      {"measurement": "EC50", "setting": "[2]; Fibroblast, read-out: mean EC50 values (range over isolate groups)", "value": "0.35 to 0.67", "unit": "µg/mL"},
      {"measurement": "protection against viral-induced morbidity and mortality", "setting": "HSV-2 (G strain)", "value": 100, "unit": "%"},
      {"measurement": "protection against HSV-2-induced morbidity and mortality", "setting": "HSV-2 (G strain); formulated in gel", "value": 80, "unit": "%"}
    ]},
    {"smiles": "Nc1nc2c(ncn2COC(CO)CO)c(=O)[nH]1", "note": "[ganciclovir, 9-(1,3-dihydroxy-2-propoxymethyl)guanine]", "values": [
      {"measurement": "antiherpetic activity against thymidine kinase-deficient strains compared with wild-type", "setting": "[2]", "value": "lost their antiherpetic activity"}
    ]},
    {"smiles": "Nc1ccn([C@@H]2CS[C@H](CO)O2)c(=O)n1", "note": "[lamivudine]", "values": [
      {"measurement": "effect on HSV-2G replication compared to untreated donor-matched tissues", "setting": "HSV-2 strain G (HSV-2G)", "value": "no effect"}
    ]},
    {"smiles": "Nc1nc2c(ncn2CCC(CO)CO)c(=O)[nH]1", "note": "[penciclovir, 9-(4-hydroxy-3-hydroxymethylbut-1-yl)guanine]", "values": [
      {"measurement": "antiherpetic activity against thymidine kinase-deficient strains compared with wild-type", "setting": "[2]", "value": "lost their antiherpetic activity"}
    ]}
  ]
}
